From publication PMC10724293, “New ruthenium-xanthoxylin complex eliminates colorectal cancer stem cells by targeting the heat shock protein 90 chaperone” (Cell Death & Disease, 2023)

Legend:
HCT116 cells [1] = assay: Functional cell death assay with inhibitors/activator; assay type: cell-based, human; conditions: then 10 µM RXC for 48 h; for effect of autophagy inhibitor on RXC-induced cell death: pretreated with 50 µM CQ or 5 mM 3-MA, annexin V-FITC/PI
Source text: (§1) For apoptosis detection or functional assays, cell viability was quantified using annexin V-FITC/PI (FITC Annexin V Apoptosis Detection Kit I, BD Biosciences, San Jose, CA, USA) or YO-PRO-1/PI (Sigma-Aldrich Co.). The following inhibitors were used: chloroquine (autophagy inhibitor, Ipca Laboratories, Mumbai, MH, India); 3-methyladenine (autophagy inhibitor, Sigma-Aldrich Co.); and lithium chloride (Wnt activator, Sigma-Aldrich Co.).

WT SV40 MEF = assay: Alamar blue survival curves; assay type: cell-based; conditions: Mus musculus, 72 h
Method: (§2) The Alamar blue assay was used to determine cell viability as previously described. Cells were seeded into 96-well plates at a density of 7 × 10^3 cells per well for adherent cells or 3 × 10^4 cells per well for suspended cells. The drug was added to each well after 24 h of incubation for adherent cells or immediately for suspended cells and incubated for an additional 72 h. […] Each well received 100 µM resazurin (Sigma-Aldrich Co. St. Louis, MO, United States) four (for cell lines) or 24 (for primary culture) h before the end of the incubation. A SpectraMax 190 Microplate Reader (Molecular Devices, Sunnyvale, CA, USA) was used to measure absorbance at 570 and 600 nm.

BAD KO SV40 MEF = assay: Alamar blue survival curves and cell death; assay type: cell-based, mouse; conditions: Mus musculus; BAD KO SV40 MEF; Alamar blue, 72 h
Method: as §2, §1

[2] = system: CR03 (metastatic cholangiocarcinoma); assay: Alamar blue viability of primary cancer cells; assay type: cell-based, human; conditions: 25 μg/ml (RXC 31.3 μM, DOX 46 μM), 96 h
Method: as §2
(§3) CR03 (metastatic cholangiocarcinoma) CR04 (malignant papillary mesothelioma) […]
(§4) Figure S1. […] Cells were exposed to 25 […]
(§5) measured after 96 h using the Alamar blue assay. The data are presented as the […]
(§6) mean ± S.E.M. of four replicates. * P < 0.05 compared to CTL by one-way ANOVA […]
(§7) followed by Dunnett's multiple comparisons test. […]

[3] = system: CR04 (malignant papillary mesothelioma); assay: Alamar blue viability of primary cancer cells; assay type: cell-based, human; conditions: primary papilliferous malignant mesothelioma; 25 μg/ml (RXC 31.3 μM, DOX 46 μM); 96 h
Method: as §2, §3, §4, §5, §6, §7

[4] = system: CR01 (colorectal carcinoma); assay: Alamar blue viability of primary cancer cells; assay type: cell-based, human; conditions: primary CRC (first listed); 25 μg/ml (RXC 31.3 μM, DOX 46 μM); 96 h
Method: as §2, §3, §4, §5, §6, §7

HCT116 cells [5] = assay: Cell cycle distribution and internucleosomal DNA fragmentation by flow cytometry; assay type: cell-based, human; conditions: 1 µM, positive control
Method: For quantification of internucleosomal DNA fragmentation and cell cycle distribution, the cells were stained with PI using a solution containing 0.1% Triton X-100, 2 µg/ml PI, 0.1% sodium citrate, and 100 µg/ml RNAse (all from Sigma-Aldrich) and incubated in the dark for 15 min at room temperature. Finally, cell fluorescence was measured using flow cytometry.
For all flow cytometry analyses, cell fluorescence was measured with a BD LSRFortessa cytometer and analyzed by BD FACSDiva Software (BD Biosciences) and FlowJo Software 10 (FlowJo LLC; Ashland, OR, USA). At least 10,000 events were evaluated per sample for intracellular staining, and at least 30,000 events were acquired per sample for cell surface protein staining. FSC-A versus FCS-H and SCC-A versus SCC-H were used to remove the doublets. The analysis excluded cellular debris.

HepG2 = assay: Alamar blue cytotoxicity assay; assay type: cell-based, human; conditions: Homo sapiens, 72 h, read-out: IC50 and 95%CI
Method: as §2

JUKART = assay: Alamar blue cytotoxicity assay; assay type: cell-based, human; conditions: Homo sapiens, 72 h, read-out: IC50 and 95%CI
Method: as §2

SCC4 = assay: Alamar blue cytotoxicity assay; assay type: cell-based, human; conditions: Homo sapiens, SCC-4, 72 h, read-out: IC50 and 95%CI
Method: as §2

NB4 = assay: Alamar blue cytotoxicity assay; assay type: cell-based, human; conditions: Homo sapiens, NB-4, 72 h, read-out: IC50 and 95%CI
Method: as §2

SCC-25 = assay: Alamar blue cytotoxicity assay; assay type: cell-based, human; conditions: Homo sapiens, 72 h, read-out: IC50 and 95%CI
Method: as §2

K-562 = assay: Alamar blue cytotoxicity assay; assay type: cell-based, human; conditions: Homo sapiens, K562, 72 h, read-out: IC50 and 95%CI
Method: as §2

A-375 = assay: Alamar blue cytotoxicity assay; assay type: cell-based, human; conditions: Homo sapiens, 72 h, read-out: IC50 and 95%CI
Method: as §2

HL-60 = assay: Alamar blue cytotoxicity assay; assay type: cell-based, human; conditions: Homo sapiens, 72 h, read-out: IC50 and 95%CI
Method: as §2

CAL 27 = assay: Alamar blue cytotoxicity assay; assay type: cell-based, human; conditions: Homo sapiens, 72 h, read-out: IC50 and 95%CI
Method: as §2

MDA-MB-231 = assay: Alamar blue cytotoxicity assay; assay type: cell-based, human; conditions: Homo sapiens, 72 h, read-out: IC50 and 95%CI
Method: as §2

H1299 = assay: Alamar blue cytotoxicity assay; assay type: cell-based, human; conditions: Homo sapiens, NCI-H1299, 72 h, read-out: IC50 and 95%CI
Method: as §2

DU 145 = assay: Alamar blue cytotoxicity assay; assay type: cell-based, human; conditions: Homo sapiens, 72 h, read-out: IC50 and 95%CI
Method: as §2

THP-1 = assay: Alamar blue cytotoxicity assay; assay type: cell-based, human; conditions: Homo sapiens, 72 h, read-out: IC50 and 95%CI
Method: as §2

PANC-1 = assay: Alamar blue cytotoxicity assay; assay type: cell-based, human; conditions: Homo sapiens, 72 h, read-out: IC50 and 95%CI
Method: as §2

HSC-3 = assay: Alamar blue cytotoxicity assay; assay type: cell-based, human; conditions: Homo sapiens, 72 h, read-out: IC50 and 95%CI
Method: as §2

A549 = assay: Alamar blue cytotoxicity assay; assay type: cell-based, human; conditions: Homo sapiens, 72 h, read-out: IC50 and 95%CI
Method: as §2

HCT116 = assay: Alamar blue cytotoxicity assay; assay type: cell-based, human; conditions: Homo sapiens, HCT-116, 72 h, read-out: IC50 and 95%CI
Method: as §2

SCC-9 = assay: Alamar blue cytotoxicity assay; assay type: cell-based, human; conditions: Homo sapiens, 72 h, read-out: IC50 and 95%CI
Method: as §2

KG-1a = assay: Alamar blue cytotoxicity assay; assay type: cell-based, human; conditions: Homo sapiens, 72 h, read-out: IC50 and 95%CI
Method: as §2

U-87 MG = assay: Alamar blue cytotoxicity assay; assay type: cell-based, human; conditions: Homo sapiens, 72 h, read-out: IC50 and 95%CI
Method: as §2

[6] = RXC 2 mg/kg, DOX 0.8 mg/kg
Source text: To evaluate toxicological features, all animals were weighed at the beginning and end of the experiment. Throughout the experiment, the animals were monitored for abnormalities. An Advia 60 hematology system was used to perform hematological analyses (Bayer, Leverkusen, Germany). The livers, kidneys, lungs, and hearts were removed, weighed, and examined for color change, gross lesion formation, and/or hemorrhaging before being fixed in 4% formaldehyde, dehydrated in a graded alcohol series, washed in xylene, and embedded in paraffin wax. The tissue was cut into 5 μm thick slices, stained with hematoxylin-eosin and/or periodic acid-Schiff (liver and kidney), and examined histologically under optical microscopy.

B16-F10 = assay: Alamar blue cytotoxicity assay; assay type: cell-based, mouse; conditions: Mus musculus, 72 h, read-out: IC50 and 95%CI
Method: as §2

4T1 = assay: Alamar blue cytotoxicity assay; assay type: cell-based, mouse; conditions: Mus musculus, 72 h, read-out: IC50 and 95%CI
Method: as §2

BJ = assay: Alamar blue cytotoxicity assay, noncancerous cells; assay type: cell-based, human; conditions: Homo sapiens, 72 h, read-out: IC50 and 95%CI
Method: as §2

PBMC = assay: Alamar blue cytotoxicity assay, noncancerous cells; assay type: cell-based, human; conditions: Homo sapiens, 72 h, read-out: IC50 and 95%CI
Method: as §2

MRC-5 = assay: Alamar blue cytotoxicity assay, noncancerous cells; assay type: cell-based, human; conditions: Homo sapiens, MRC5, MRC-5 noncancerous cells, 72 h, read-out: IC50 and 95%CI
Method: as §2

HCT116 cells [7] = assay: CRC tumor growth xenograft model; assay type: in vivo, C. B-17 SCID mice; conditions: RXC 2 mg/kg, DOX 0.8 mg/kg, i.p. once a day for 2 weeks
Method: HCT116 cells (10^7 cells/500 μl) were inoculated subcutaneously into the left front armpit of mice, as previously reported. The animals were then treated intraperitoneally (200 μl/animal) once a day for 2 weeks. […] The animals were euthanized with an anesthetic overdose (thiopental, 100 mg/kg) 1 day after treatment ended, and tumors were excised, weighed, and processed for histological analysis. The inhibition ratio (percent) was calculated as follows: inhibition ratio (percent) = [(A − B)/A] × 100, where A is the average tumor weight of the negative control and B is the treated group.

For `Cn1cnc(N)c2ncnc1-2` [3-MA, 3-methyladenine], the “effect of autophagy inhibitor on RXC-induced cell death” value (HCT116 cells [1]) was “enhanced RXC-induced cell death”.

Work on `O=c1[nH]cc(F)c(=O)[nH]1` [5-FU, 5-fluorouracil, reference compound] yielded an IC50 (WT SV40 MEF) of 10000 nM and an IC50 (BAD KO SV40 MEF) of 25800 nM.

With `CCN(CC)CCCC(C)Nc1ccnc2cc(Cl)ccc12` (stereo not shown) [CQ, chloroquine] the “effect of autophagy inhibitor on RXC-induced cell death” value (HCT116 cells [1]) was “enhanced RXC-induced cell death”.

With `COc1cccc2c1C(=O)c1c(O)c3c(c(O)c1C2=O)C[C@@](O)(C(=O)CO)C[C@@H]3O[C@H]1C[C@H](N)[C@H](O)[C@H](C)O1` [DOX, Doxorubicin, reference compound] the reduced cell viability [2] was 65.6%, the reduced cell viability [3] was 64.3% and the reduced cell viability [4] was 71.0%. For the same compound, the cell cycle effect (HCT116 cells [5]) was “G2/M arrest”, the IC50 (HepG2) was 90 nM and the IC50 (JUKART) was 30 nM. It also gave an IC50 (SCC4) of 70 nM, an IC50 (NB4) of 110 nM and an IC50 (SCC-25) of 1580 nM. It also gave an IC50 (K-562) of 1500 nM, an IC50 (A-375) of 160 nM and an IC50 (HL-60) of 90 nM. For the same compound, the IC50 (CAL 27) was 180 nM, the IC50 (MDA-MB-231) was 550 nM and the IC50 (H1299) was 770 nM. The IC50 (DU 145) was 220 nM, the IC50 (THP-1) was 120 nM and the IC50 (PANC-1) was 1060 nM. The IC50 (HSC-3) was 1430 nM, the IC50 (A549) was 2350 nM and the IC50 (HCT116) was 3300 nM. For the same compound, the IC50 (SCC-9) was 1210 nM, the IC50 (KG-1a) was 400 nM and the IC50 (U-87 MG) was 440 nM. For the same compound, the hematological analysis ([6]; i.p. once a day for 2 weeks) was “Decreases in erythrocytes, hemoglobin, hematocrit, MCV and leukocytes”, the “animals died during the treatment” value ([6]; i.p. once a day for 2 weeks, n = 15 per group) was “four” and the body weight ([6]; i.p. once a day for 2 weeks, p < 0.05) was “decrease in body weight”. For the same compound, the liver histology ([6]; mainly in treated animals) was “focal areas of hepatocyte coagulation necrosis”, the kidney histology ([6]; more evident than in control) was “focal areas of coagulation necrosis of the renal cortex tubules” and the IC50 (B16-F10) was 530 nM. For the same compound, the IC50 (4T1) was 1700 nM, the IC50 (BJ) was 730 nM and the IC50 (PBMC) was 1280 nM. For the same compound, the IC50 (MRC-5) was 1610 nM and the tumor mass inhibition (HCT116 cells [7]) was 46.7%.

In the case of `[Cl-].[Li+]` [lithium chloride], the “effect of Wnt activator on RXC-induced cell death” value (HCT116 cells [1]; pretreated with 25 mM LiCl, YO-PRO-1/PI) is reported as “ineffective in preventing RXC-induced cell death”.
